Laboratory results from ChEMBL document CHEMBL4602709 (ACS Med Chem Lett, 2020).

How the values were obtained:
[1] = Metabolic stability in mouse liver microsomes assessed as half life at 3 uM measured up to 30 mins in presence of NADPH by […] analysis; format: ADME, Microsome
[2] = biological target: Tyrosine-protein kinase ABL1 (Homo sapiens, UniProt P00519); test: Inhibition of human ABL1 assessed as residual activity using EAIYAAPFAKKK as substrate by [gamma-33P]-ATP assay
[3] = Metabolic stability in human liver microsomes assessed as half life at 3 uM measured up to 30 mins in presence of NADPH by […] analysis; format: ADME, Microsome
[4] = biological target: Voltage-gated inwardly rectifying potassium channel KCNH2 (Homo sapiens, UniProt Q12809); test: Inhibition of human ERG incubated for 4 hrs by competitive fluorescence tracer binding based assay
Chain of Voltage-gated inwardly rectifying potassium channel KCNH2 (Q12809 whole entry): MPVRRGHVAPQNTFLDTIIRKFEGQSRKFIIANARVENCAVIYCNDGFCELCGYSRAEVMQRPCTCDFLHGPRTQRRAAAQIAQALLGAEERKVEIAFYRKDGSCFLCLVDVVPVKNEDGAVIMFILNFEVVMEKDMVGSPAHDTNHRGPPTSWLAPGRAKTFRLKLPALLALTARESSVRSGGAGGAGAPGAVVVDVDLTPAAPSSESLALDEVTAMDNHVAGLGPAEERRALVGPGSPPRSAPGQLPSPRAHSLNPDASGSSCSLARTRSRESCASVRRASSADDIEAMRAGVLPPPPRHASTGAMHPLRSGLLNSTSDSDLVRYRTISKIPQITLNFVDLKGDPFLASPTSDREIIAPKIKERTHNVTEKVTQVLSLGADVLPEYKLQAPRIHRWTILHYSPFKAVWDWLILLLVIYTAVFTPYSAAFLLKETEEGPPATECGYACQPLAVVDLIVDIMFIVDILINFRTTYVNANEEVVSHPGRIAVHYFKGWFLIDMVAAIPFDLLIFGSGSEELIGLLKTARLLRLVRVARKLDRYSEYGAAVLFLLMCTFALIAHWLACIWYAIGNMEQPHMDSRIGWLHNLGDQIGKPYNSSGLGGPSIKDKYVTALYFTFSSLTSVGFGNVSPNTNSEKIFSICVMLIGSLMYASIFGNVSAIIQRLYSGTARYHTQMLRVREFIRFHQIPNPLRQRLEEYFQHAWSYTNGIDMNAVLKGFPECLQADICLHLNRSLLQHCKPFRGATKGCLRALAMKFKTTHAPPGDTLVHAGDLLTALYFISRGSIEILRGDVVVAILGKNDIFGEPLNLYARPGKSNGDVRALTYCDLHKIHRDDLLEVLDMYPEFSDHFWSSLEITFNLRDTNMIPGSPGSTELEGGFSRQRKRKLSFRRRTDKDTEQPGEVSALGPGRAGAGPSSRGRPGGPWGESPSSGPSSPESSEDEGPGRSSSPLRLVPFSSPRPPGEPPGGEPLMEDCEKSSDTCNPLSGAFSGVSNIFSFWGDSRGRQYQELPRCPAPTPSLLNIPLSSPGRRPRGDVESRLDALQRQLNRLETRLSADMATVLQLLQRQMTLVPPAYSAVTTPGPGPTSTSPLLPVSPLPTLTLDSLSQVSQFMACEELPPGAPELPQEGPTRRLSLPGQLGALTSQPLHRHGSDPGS

Cytochrome P450 3A4 = Cytochrome P450 3A4 (Homo sapiens, UniProt P08684); test: Inhibition of human recombinant CYP3A4 expressed in insect cell microsomes in presence of NADPH by fluorescence assay; format: ADME
Chain of Cytochrome P450 3A4 (P08684 whole entry): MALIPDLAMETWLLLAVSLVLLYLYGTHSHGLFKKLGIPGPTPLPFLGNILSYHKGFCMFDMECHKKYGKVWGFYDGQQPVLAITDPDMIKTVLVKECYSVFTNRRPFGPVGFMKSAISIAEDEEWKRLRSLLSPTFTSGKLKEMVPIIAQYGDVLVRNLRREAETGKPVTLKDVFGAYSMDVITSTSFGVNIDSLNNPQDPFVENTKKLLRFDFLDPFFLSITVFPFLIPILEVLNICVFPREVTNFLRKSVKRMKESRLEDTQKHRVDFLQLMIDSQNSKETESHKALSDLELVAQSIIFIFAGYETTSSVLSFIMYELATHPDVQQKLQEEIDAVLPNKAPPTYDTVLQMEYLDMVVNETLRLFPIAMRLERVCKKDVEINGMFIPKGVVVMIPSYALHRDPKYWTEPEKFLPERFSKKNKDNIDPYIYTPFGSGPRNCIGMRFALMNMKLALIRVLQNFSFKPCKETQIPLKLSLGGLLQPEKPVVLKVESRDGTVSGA

[5] = biological target: T1, Mitogen-activated protein kinase kinase kinase kinase 3 (Homo sapiens) (UniProt Q8IVH8); test: Inhibition of MAP4K3 (unknown origin) assessed as residual activity at 10 uM incubated for 5 mins in presence of [gamma-33ATP] by scintillation counting based radiometry assay relative to control
T1 sequence (whole entry): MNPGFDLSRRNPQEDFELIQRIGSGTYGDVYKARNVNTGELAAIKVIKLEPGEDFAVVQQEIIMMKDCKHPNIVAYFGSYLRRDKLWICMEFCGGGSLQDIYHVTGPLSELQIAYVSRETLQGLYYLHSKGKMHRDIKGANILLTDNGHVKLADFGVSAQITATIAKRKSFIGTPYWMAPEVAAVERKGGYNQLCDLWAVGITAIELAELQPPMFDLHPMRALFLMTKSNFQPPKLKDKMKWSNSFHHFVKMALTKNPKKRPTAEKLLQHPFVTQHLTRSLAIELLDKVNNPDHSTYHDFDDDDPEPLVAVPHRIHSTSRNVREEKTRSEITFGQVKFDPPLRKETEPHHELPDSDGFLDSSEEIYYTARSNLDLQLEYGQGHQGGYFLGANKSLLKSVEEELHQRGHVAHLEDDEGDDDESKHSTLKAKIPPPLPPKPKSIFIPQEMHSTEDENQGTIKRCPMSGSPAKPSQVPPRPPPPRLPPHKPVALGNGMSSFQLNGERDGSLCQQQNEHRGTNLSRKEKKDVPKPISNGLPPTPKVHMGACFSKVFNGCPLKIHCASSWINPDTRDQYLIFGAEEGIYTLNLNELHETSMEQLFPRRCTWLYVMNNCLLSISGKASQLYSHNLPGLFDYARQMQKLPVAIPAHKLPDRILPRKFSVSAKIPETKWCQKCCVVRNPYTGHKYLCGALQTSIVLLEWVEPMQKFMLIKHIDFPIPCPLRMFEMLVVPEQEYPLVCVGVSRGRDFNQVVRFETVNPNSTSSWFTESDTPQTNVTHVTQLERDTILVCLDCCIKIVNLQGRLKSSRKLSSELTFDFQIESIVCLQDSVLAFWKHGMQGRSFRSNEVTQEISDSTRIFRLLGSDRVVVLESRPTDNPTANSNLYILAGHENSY

[6] = biological target: Proto-oncogene tyrosine-protein kinase Src (Homo sapiens, UniProt P12931); test: Inhibition of SRC (unknown origin) assessed as residual activity at 10 uM incubated for 5 mins in presence of [gamma-33ATP] by scintillation counting based radiometry assay relative to control
Chain of Proto-oncogene tyrosine-protein kinase Src (P12931 2-536 limits assumed): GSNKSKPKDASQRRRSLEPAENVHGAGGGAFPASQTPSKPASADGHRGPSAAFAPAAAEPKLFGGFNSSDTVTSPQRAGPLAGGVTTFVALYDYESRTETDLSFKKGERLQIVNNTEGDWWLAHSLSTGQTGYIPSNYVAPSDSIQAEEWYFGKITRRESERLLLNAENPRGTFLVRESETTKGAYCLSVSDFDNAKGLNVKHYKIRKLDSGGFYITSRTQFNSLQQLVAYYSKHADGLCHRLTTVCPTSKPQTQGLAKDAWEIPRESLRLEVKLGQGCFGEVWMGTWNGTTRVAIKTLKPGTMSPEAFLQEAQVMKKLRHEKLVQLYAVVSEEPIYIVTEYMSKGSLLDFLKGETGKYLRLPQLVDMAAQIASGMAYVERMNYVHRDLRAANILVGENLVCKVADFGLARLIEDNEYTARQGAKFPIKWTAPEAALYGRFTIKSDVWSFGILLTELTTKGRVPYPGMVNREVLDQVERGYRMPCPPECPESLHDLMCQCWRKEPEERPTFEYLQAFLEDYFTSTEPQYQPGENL

[7] = biological target: T2, Ephrin type-B receptor 2 (Homo sapiens) (UniProt P29323); test: Inhibition of EPHB2 (unknown origin) assessed as residual activity at 10 uM incubated for 5 mins in presence of [gamma-33ATP] by scintillation counting based radiometry assay relative to control
T2 sequence (whole entry): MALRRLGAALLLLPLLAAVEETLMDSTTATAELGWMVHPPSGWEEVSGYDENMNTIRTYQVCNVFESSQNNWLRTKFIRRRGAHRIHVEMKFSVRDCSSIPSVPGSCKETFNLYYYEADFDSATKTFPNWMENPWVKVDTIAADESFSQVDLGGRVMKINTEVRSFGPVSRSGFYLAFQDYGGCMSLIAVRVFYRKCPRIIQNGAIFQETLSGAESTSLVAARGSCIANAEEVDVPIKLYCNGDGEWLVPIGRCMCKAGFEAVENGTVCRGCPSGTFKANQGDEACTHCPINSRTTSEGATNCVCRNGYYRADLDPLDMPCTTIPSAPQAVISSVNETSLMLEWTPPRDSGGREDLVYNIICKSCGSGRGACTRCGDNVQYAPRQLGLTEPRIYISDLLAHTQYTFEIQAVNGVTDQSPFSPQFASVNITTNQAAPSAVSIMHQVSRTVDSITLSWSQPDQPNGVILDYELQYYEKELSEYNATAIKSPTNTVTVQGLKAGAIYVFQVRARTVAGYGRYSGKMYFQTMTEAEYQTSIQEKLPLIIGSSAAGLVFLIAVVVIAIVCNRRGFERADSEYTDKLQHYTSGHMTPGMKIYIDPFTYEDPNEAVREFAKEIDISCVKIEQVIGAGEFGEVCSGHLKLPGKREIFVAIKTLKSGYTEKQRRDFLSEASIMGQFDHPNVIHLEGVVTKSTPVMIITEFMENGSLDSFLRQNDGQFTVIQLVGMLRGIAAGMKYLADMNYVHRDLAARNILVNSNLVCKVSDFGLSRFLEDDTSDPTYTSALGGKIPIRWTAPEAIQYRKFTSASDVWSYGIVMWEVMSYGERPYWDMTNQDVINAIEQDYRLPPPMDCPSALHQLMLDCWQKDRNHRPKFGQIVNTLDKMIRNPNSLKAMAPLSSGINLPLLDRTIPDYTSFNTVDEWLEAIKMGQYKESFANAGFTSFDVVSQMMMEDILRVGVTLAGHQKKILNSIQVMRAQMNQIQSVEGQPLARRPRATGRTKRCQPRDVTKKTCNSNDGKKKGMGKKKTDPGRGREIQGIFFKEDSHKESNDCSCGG

[8] = biological target: Tyrosine-protein kinase Lck (Homo sapiens, UniProt P06239); test: Inhibition of LCK (unknown origin) assessed as residual activity at 10 uM incubated for 5 mins in presence of [gamma-33ATP] by scintillation counting based radiometry assay relative to control
Chain of Tyrosine-protein kinase Lck (P06239 2-509 limits assumed): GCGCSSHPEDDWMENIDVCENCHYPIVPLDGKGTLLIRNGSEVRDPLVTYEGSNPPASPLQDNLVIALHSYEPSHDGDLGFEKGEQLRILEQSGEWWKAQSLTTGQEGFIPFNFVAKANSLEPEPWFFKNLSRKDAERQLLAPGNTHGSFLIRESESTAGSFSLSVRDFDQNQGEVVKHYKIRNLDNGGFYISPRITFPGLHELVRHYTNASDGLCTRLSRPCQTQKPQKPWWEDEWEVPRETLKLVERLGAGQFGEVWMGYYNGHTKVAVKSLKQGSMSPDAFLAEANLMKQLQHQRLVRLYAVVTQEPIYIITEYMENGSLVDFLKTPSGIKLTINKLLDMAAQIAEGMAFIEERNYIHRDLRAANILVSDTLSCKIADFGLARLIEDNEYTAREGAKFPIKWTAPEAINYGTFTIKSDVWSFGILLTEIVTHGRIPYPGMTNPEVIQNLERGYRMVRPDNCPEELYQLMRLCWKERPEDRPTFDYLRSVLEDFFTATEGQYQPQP

[9] = biological target: T3, Discoidin domain-containing receptor 2 (Homo sapiens) (UniProt Q16832); test: Inhibition of DDR2 (unknown origin) assessed as residual activity at 10 uM incubated for 5 mins in presence of [gamma-33ATP] by scintillation counting based radiometry assay relative to control
T3 sequence (whole entry): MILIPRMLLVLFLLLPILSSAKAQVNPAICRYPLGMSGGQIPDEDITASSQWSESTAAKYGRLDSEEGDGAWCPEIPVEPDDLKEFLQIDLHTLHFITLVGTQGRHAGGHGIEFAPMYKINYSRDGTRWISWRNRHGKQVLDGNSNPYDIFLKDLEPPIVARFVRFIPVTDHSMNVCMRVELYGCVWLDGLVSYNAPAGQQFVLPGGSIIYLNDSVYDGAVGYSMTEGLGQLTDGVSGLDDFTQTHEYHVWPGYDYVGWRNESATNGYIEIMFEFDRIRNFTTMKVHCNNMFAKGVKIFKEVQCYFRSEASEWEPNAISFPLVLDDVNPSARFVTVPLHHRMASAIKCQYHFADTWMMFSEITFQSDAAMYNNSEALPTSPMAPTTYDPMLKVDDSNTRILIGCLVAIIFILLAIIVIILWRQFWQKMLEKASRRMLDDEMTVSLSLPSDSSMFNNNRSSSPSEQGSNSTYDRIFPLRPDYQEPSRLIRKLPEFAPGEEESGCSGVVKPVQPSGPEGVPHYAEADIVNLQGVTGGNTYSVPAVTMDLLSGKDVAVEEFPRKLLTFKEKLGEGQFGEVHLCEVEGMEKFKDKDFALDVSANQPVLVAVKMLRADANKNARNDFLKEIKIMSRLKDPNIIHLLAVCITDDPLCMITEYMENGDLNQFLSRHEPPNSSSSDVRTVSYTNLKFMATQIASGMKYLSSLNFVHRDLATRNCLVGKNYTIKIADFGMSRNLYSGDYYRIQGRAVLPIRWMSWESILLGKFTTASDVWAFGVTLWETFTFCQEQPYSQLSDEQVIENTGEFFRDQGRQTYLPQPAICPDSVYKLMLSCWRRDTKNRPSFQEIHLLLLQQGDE

[10] = biological target: Serine/threonine-protein kinase Nek6 (Homo sapiens, UniProt Q9HC98); test: Inhibition of NEK6 (unknown origin) assessed as residual activity at 10 uM incubated for 5 mins in presence of [gamma-33ATP] by scintillation counting based radiometry assay relative to control
Chain of Serine/threonine-protein kinase Nek6 (Q9HC98 whole entry): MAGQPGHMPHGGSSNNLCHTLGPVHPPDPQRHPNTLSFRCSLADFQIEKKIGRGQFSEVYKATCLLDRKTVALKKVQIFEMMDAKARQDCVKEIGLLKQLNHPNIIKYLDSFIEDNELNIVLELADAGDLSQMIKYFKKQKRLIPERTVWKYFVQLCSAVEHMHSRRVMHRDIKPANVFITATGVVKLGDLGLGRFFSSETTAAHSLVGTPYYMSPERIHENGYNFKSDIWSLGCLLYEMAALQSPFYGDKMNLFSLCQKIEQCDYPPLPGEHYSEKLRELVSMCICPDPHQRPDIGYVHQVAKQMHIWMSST

Homo sapiens = organism: Homo sapiens; test: Inhibition of VEGFR (unknown origin) assessed as residual activity at 10 uM incubated for 5 mins in presence of [gamma-33ATP] by scintillation counting based radiometry assay relative to control

Chain of Tyrosine-protein kinase ABL1 (P00519 whole entry): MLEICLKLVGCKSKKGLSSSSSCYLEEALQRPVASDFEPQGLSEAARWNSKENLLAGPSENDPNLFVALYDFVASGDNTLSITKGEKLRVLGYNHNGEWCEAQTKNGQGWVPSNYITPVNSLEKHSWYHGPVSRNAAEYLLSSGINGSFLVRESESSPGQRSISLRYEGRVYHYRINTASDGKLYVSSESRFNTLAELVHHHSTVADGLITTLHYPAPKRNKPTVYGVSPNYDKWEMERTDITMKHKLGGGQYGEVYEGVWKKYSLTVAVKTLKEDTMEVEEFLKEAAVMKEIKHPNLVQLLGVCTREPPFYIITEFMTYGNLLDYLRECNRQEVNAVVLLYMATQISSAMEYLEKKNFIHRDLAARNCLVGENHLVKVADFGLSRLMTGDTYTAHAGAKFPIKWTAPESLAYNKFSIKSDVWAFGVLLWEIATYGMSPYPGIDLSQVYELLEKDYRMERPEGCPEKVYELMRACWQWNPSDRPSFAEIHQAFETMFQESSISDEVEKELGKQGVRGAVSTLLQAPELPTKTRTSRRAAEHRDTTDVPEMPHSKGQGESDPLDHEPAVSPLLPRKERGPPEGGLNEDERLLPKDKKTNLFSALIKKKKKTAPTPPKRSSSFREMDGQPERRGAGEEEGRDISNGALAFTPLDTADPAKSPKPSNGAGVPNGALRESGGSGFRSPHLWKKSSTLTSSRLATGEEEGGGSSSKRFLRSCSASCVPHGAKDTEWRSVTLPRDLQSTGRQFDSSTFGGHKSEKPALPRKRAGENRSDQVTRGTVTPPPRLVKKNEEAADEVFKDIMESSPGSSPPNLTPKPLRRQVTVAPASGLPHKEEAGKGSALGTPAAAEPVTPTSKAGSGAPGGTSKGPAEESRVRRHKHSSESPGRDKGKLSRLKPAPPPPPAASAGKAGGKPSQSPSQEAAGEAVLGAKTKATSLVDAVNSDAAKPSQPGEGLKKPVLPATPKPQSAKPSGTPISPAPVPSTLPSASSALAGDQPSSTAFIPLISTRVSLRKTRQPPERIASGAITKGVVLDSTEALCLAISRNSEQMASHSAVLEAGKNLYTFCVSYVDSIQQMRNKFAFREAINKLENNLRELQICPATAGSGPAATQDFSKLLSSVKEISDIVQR

SMILES | half-life at 3 µM [1] [h] | IC50 [2] [µM] | half-life at 3 µM [3] [h] | IC50 [4] [µM] | IC50 (Cytochrome P450 3A4) [µM] | further results
Cc1ccc(C(=O)Nc2ccc(CN3Cc4ccc(O)cc4C3)c(Cl)c2)cc1C#Cc1cnc2cccnn12 | 0.441 | > 0.03 | 2.63 |  |  | 
Cc1ccc(C(=O)Nc2ccc(CN3CCN(CCO)CC3)c(Cl)c2)cc1C#Cc1cnc2cccnn12 |  | 0.00039 |  | 0.1 | 13.4 | 
Cc1ccc(C(=O)Nc2ccc(CN3CCN(CCO)CC3)c(C3CC3)c2)cc1C#Cc1cnc2cccnn12 |  | 0.0003 |  | 0.34 |  | 
Cc1ccc(C(=O)Nc2ccc(CN3CCN(C)CC3)c(C(F)(F)F)c2)cc1C#Cc1cnc2cccnn12 [PONATINIB] | 0.532 |  | 3.04 |  |  | Activity [5]: 2%; Activity [6]: 11%; Activity [7]: 2%; Activity [8]: 29%; Activity [9]: 3%; Activity [10]: 52%; Activity (Homo sapiens): 28%
COCCN1CCN(Cc2ccc(NC(=O)c3ccc(C)c(C#Cc4cnc5cccnn45)c3)cc2C2CC2)CC1 |  |  |  | 0.08 | 13.5 | 
